Key:
HCV 1a replicon = HCV 1a replicon assay (luciferase reporter); type: cell-based, Hepatitis C virus genotype 1a-H77; details: in vitro, relative to compound of FIG. 2A
HCV 1b replicon = HCV 1b replicon assay (luciferase reporter); type: cell-based, Hepatitis C virus genotype 1b-Con1; details: in vitro, relative to compound of FIG. 2A

## CC(C)c1ccc2c(Nc3cc(C(=O)N[C@@H](C)c4ccccc4)ccc3Sc3ccc(N)cc3)ncnc2n1 [compound of FIG. 2B]
HCV 1a replicon
  increase in HCV replication inhibitory activities compared to the compound of FIG. 2A: over 1,000 fold
HCV 1b replicon
  increase in HCV replication inhibitory activities compared to the compound of FIG. 2A: over 600 fold
